Laboratory results: BindingDB's records for doi:10.1042/BJ20030674 (University of Padova, 2003)

Experiment: In vitro kinase assay using purified enzyme, was incubated at room temperature with substrate, and test compounds in the presence of 100 uM ATP/ [gamma-33P] ATP. 33P incorporation was measured with scintillation counter. IC50 values were calculated from dose-response curves; from these calculated apparent inhibition constants (Ki) were obtained usin
Conditions: pH 7.5

IC50	SMILES
3.6 µM	OCCCNc1cc(-c2ccnc(Nc3cccc(OC(F)(F)C(F)F)c3)n2)ccn1 [3-{[4-(2-{[3-(1,1,2,2-tetrafluoroethoxy)phenyl]amino}pyrimidin-4-yl)pyridin-2-yl]amino}propan-1-ol]
9.6 µM	NCCNc1cc(-c2ccnc(Nc3cccc(Cl)c3)n2)ccn1 [4-{2-[(2-aminoethyl)amino]pyridin-4-yl}-N-(3-chlorophenyl)pyrimidin-2-amine]
3.2 µM	Clc1cccc(Nc2nccc(-c3ccnc(NCCc4cnc[nH]4)c3)n2)c1 [N-(3-chlorophenyl)-4-(2-{[2-(1H-imidazol-4-yl)ethyl]amino}pyridin-4-yl)pyrimidin-2-amine]
